Measured values from paper PMC4987127 (Leukemia, 2015).
Values belong to the molecule of their own block, whether it stands above or below them.

Assays:
BTK kinase = BTK kinase (Homo sapiens, UniProt Q06187); assay: BTK signaling in AML cell lines: BTK phosphorylation; format: cell-based; conditions: FLT3 wt and FLT3-ITD cell lines
PLCγ = assay: BTK signaling in AML cell lines: downstream mediators; format: cell-based; conditions: for effect on PLCγ phosphorylation: direct downstream target of BTK
AKT and ERK = assay: Phosphorylation of AKT and ERK in AML cell lines; format: cell-based
[1] = system: FLT3-mediated signaling pathways; assay: FLT3-mediated signaling pathways in FLT3-ITD positive cell lines; format: cell-based
HL60 = HL60 ref 11; cited from earlier work
THP-1 = THP-1 ref 11; cited from earlier work
PDGFRα Ba/F3 cells = assay: Oncogene-expressing Ba/F3 cell growth; format: cell-based
FLT3 kinase = FLT3 kinase (Homo sapiens, UniProt P36888); assay: Binding mode examination; conditions: molecular modeling, confirmed by washing-out experiment
c-Kit Ba/F3 cells = assay: Oncogene-expressing Ba/F3 cell growth; format: cell-based
BCR-ABL Ba/F3 cells = assay: Oncogene-expressing Ba/F3 cell growth; format: cell-based
FLT3-D835Y-BaF3 = assay: Isogenic BaF3 cell proliferation; format: cell-based; conditions: Mus musculus
U937 cells = U937 cells ref 11; cited from earlier work
ITD-D835Y = assay: Isogenic BaF3 cell proliferation; format: cell-based
TEL-FLT3-wt-BaF3 = assay: Isogenic BaF3 cell proliferation; format: cell-based; conditions: Mus musculus
[2] = system: FLT3-ITD mutant-expressing primary patient cells; assay: Anti-proliferation on primary patient cells; format: cell-based
[3] = system: OCI-AML3 and NOMO-1 cells; assay: FLT3-mediated signaling in FLT3 low expression cell lines; format: cell-based
NRAS Ba/F3 cells = assay: Oncogene-expressing Ba/F3 cell growth; format: cell-based
FLT3-K663Q = assay: Isogenic BaF3 cell proliferation; format: cell-based
ITD-F691L = assay: Isogenic BaF3 cell proliferation; format: cell-based
FLT3-D835H-BaF3 = assay: Isogenic BaF3 cell proliferation; format: cell-based; conditions: Mus musculus
[4] = system: BTK-KD MOLM14 and MOLM13 cells; conditions: BTK knockdown MOLM14 and MOLM13
TF-1 = TF-1 ref 11; cited from earlier work
[5] = system: FLT3-ITD-dependent isogenic BaF3 cell line; assay: Isogenic BaF3 cell proliferation; format: cell-based
[6] = system: FLT3-ITD mutant AML cell lines (MOLM13, MOLM14 and MV4-11); assay: Proliferation screen of a panel of AML cell lines; format: cell-based; conditions: panel of AML cell lines spanning M0–M7; only FLT3-ITD mutant lines MOLM13, MOLM14, MV4-11
FLT3-ITD cell lines = assay: Apoptotic cell death; format: cell-based; conditions: concentration- and time-dependent

BTK kinase, sequence (Q06187 whole entry): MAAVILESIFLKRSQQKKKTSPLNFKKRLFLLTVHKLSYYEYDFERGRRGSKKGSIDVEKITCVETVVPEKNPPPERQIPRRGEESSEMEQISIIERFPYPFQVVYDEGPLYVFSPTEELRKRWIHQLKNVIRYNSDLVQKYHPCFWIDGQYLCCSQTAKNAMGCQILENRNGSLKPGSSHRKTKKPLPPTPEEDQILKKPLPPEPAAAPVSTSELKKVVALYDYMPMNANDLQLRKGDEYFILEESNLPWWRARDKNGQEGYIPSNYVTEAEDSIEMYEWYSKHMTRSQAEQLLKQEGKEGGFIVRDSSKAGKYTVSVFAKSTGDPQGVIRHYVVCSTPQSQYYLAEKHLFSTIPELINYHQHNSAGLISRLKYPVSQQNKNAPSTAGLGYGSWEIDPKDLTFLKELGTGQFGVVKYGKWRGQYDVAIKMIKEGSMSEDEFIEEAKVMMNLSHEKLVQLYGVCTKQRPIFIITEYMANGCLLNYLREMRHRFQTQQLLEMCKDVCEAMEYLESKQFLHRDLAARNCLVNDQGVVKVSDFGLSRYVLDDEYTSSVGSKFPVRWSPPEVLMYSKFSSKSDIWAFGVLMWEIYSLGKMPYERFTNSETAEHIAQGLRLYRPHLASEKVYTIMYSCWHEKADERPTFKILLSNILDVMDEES
FLT3 kinase, sequence (P36888 27-993): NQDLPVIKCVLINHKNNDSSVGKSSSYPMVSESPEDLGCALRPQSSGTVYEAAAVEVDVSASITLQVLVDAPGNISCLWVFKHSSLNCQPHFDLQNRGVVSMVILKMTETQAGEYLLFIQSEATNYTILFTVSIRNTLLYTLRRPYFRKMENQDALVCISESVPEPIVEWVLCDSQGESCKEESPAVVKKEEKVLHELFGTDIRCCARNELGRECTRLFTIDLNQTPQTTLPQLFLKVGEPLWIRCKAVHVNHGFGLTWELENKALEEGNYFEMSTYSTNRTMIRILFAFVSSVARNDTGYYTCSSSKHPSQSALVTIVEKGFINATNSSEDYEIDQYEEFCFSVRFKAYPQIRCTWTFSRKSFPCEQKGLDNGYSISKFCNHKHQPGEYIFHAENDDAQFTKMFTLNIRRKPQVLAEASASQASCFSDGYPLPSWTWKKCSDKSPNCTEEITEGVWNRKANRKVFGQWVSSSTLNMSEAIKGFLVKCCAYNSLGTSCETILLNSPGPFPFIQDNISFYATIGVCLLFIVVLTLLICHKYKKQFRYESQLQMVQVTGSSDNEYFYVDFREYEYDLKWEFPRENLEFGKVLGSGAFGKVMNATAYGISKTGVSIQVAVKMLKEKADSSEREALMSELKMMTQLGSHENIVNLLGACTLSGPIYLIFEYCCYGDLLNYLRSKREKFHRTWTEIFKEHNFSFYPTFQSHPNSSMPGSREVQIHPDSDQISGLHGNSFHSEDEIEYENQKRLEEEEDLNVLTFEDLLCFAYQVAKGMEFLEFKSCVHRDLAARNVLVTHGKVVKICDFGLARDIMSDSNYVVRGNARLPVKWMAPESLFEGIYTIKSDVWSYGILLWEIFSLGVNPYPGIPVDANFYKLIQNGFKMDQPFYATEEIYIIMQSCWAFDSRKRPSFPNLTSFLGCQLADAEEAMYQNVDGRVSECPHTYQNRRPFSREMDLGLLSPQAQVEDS

effect on BTK kinase phosphorylation/activity (BTK kinase): did not affect
SMILES: CC(C)(C)c1cc(NC(=O)Nc2ccc(-c3cn4c(n3)sc3cc(OCCN5CCOCC5)ccc34)cc2)no1 [AC220]
effect on PLCγ phosphorylation (PLCγ): did not affect
effect on phosphorylation of AKT and ERK (AKT and ERK): inhibited

effect on BTK kinase phosphorylation/activity (BTK kinase): effective
SMILES: C=CC(=O)Nc1cccc(Nc2nc(Nc3ccc(OCCOC)cc3)ncc2F)c1 [AVL-292]
effect on PLCγ phosphorylation (PLCγ): effective
effect on FLT3-mediated signaling [1]: did not exhibit any effect
effect on phosphorylation of AKT and ERK (AKT and ERK): no effect

SMILES: Cc1c(NC(=O)c2ccc(C(C)(C)C)cc2)cccc1-c1cn(C)c(=O)c(Nc2ccc(C(=O)N3CCOCC3)cc2)n1 [CGI-1746]
effect on PLCγ phosphorylation (PLCγ): effective
effect on FLT3-mediated signaling [1]: did not exhibit any effect
effect on phosphorylation of AKT and ERK (AKT and ERK): no effect

SMILES: C=CC(=O)N1CCC[C@@H](n2nc(-c3ccc(Oc4ccccc4)cc3)c3c(N)ncnc32)C1 [ibrutinib, Ibrutinib]
activity against AML cell line (HL60): no apparent activity
activity against AML cell line (THP-1): no apparent activity
effect on growth (PDGFRα Ba/F3 cells): did not affect the growth
mode of inhibition of FLT3 kinase (FLT3 kinase): reversible binding
effect on growth (c-Kit Ba/F3 cells): did not affect the growth
effect on growth (BCR-ABL Ba/F3 cells): did not affect the growth
GI50 (FLT3-D835Y-BaF3): 500 nM
inhibition of proliferation (U937 cells): moderate inhibition of proliferation
activity against mutation (ITD-D835Y): less active
GI50 (TEL-FLT3-wt-BaF3): 460 nM
anti-proliferation activity [2]: dose-dependent anti-proliferation activity
effect on FLT3-related signaling [3]: not affected
effect on growth (NRAS Ba/F3 cells): did not affect the growth
activity against mutation (FLT3-K663Q): less active
activity against mutation (ITD-F691L): less active
effect on downstream mediators of BTK kinase (PLCγ; only in FLT3 wt-expressing cell lines (NOMO-1 and OCI-AML3)): affected
GI50 (FLT3-D835H-BaF3): 63 nM
growth of BTK-KD cells [4]: significantly blocked the growth
activity against AML cell line (TF-1): no apparent activity
rescue of inhibitory effect by IL-3 treatment ([5]; FLT3-ITD BaF3 with IL-3): completely rescued
GI50 ([5]; Mus musculus, BaF3): 120 nM
sensitivity to ibrutinib (proliferation) [6]: sensitive
apoptotic cell death (FLT3-ITD cell lines): induced apoptotic cell death
